Source: article PMC10351190, “Isolation and identification of active ingredients and biological activity of Dioscorea nipponica Makino” (BMC Complementary Medicine and Therapies, 2023)

Target: T1, α-glucosidase
T1 construct: gene MAL12
Experiment: pNPG hydrolysis, absorbance […] nm
Format: biochemical
Conditions: pNPG substrate ([…] stock), pH […] °C, […] phosphate

SMILES | IC50
O=C(/C=C/C=C/c1ccc(O)cc1)CCc1ccc(O)cc1 [compound 3, 1,7-bis(4-hydroxyphenyl)hepta-4E,6E-dien-3-one] | 1.6 ± 0.17 µM
COc1cc2c(ccc3cc(O)cc(OC)c32)cc1O [compound 4, 3,5-dimethoxyphenanthrene-2,7-diol] | 31.4 ± 0.18 µM
COc1cc(C(=O)O)ccc1O [compound 7, vanillic acid] | > 800 µM
COc1cc2c(ccc3c(-c4c(O)cc(OC)c5c4ccc4cc(O)c(OC)cc45)c(O)cc(OC)c32)cc1O [compound 8, 2,2',7,7'-tetrahydroxy-4,4',6,6'-tetramethoxy-1,1'-biphenanthrenes] | > 800 µM
COC(=O)c1cc(O)c(O)c(O)c1 [compound 6, methyl gallate] | > 800 µM
O=c1cc(-c2ccc(O)cc2)oc2cc(O)cc(O)c12 [compound 9, apigenin] | > 800 µM
O=C(O)c1c(O)cc(O)cc1C[C@H](O)c1ccccc1 [compound 2, diosniponol C] | > 800 µM
COc1c(O)cc(C[C@H](O)c2ccccc2)c(C(=O)O)c1O [compound 1, diosniposide E] | > 800 µM
O=C(O)c1cc(O)c(O)c(O)c1 [compound 5, gallic acid] | > 800 µM
